The source of these data is US20020159994A1, “Biotin derivatives” (priority 2000, published 2002).

Molecules are shown by their SMILES.

This assay deals with T1, Mitra Avidin-Agarose (Gallus gallus, UniProt P02701).
T1 construct: Mitra (Mitra Medical Technology AB)
Kind of assay: Adsorption of biotin-trimer to avidin-agarose column (conditioning, ELISA of recirculated fluid). On the set-up: biotin-trimer bound if one biotin-trimer is bound per available binding site: unit not given here. The assay is classed as binding. As to the method: Two mL of Mitra Avidin-Agarose was packed into a column housing and was washed with >10 mL of PBS at a flow rate of 1 mL/min (1.6 cm/min). Five mL of a 1 mg/mL solution of biotin-trimer in PBS was recirculated through the avidin-column at 1 mL/min for 20 minutes. At end of the recirculation, a sample (0.5 mL) was drawn from the recirculated solution and analysed by an ELISA technique developed by Mitra Medical Technology AB. The biotin-avidin-agarose-column was washed with phosphate buffer at 1 mL/min for 20 minutes. By determining the concentration of biotin-trimer in the recirculated fluid, the amount of adsorbed biotin-trimer was estimated to about 1.9 mg i.e. […] of gel at the end of recirculation.
Biotin-trimer was adsorbed to 2 mL of Mitra Avidin-Agarose. […] If one biotin-trimer is bound per available binding site this would correspond to […] biotin-trimer/mL. As about 0.95 mg biotin-trimer was bound per mL avidin-agarose it can be assumed that the adsorbent was saturated with biotin-trimer.
On the technique in general: An ELISA detects its analyte on a solid surface through an enzyme-linked reagent.

T1 sequence (P02701 25-152): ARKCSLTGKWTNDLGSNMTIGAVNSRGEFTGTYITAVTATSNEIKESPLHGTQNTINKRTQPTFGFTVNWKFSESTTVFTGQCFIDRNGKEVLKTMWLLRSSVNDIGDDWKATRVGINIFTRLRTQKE

As for `O=C(CCCCC1OCC2NC(=O)NC21)NCCOCCOCCNC(=O)c1cc(C(=O)NCCOCCOCCNC(=O)CCCCC2OCC3NC(=O)NC32)cc(C(=O)NCCOCCOCCNC(=O)CCCCC2OCC3NC(=O)NC32)c1` (stereo not shown) [biotin-trimer], the “biotin-trimer bound per mL avidin-agarose” value (2 mL Mitra Avidin-Agarose) is on record as “about 0.95 mg per mL avidin-agarose”. The “amount of adsorbed biotin-trimer at end of recirculation” value (2 mL Mitra Avidin-Agarose, 5 mL of 1 mg/mL biotin-trimer in PBS recirculated at 1 mL/min for 20 minutes) is reported as “about 1.9 mg”. Also, the amount of adsorbed biotin-trimer per mL of gel (2 mL Mitra Avidin-Agarose, end of 20 min recirculation) is roughly 0.95 mg/mL. The “biotin-trimer bound if one biotin-trimer is bound per available binding site” value (theoretical, from static biotin binding capacity) was 514.
